Measured values: US6949516B2, “Dipeptide apoptosis inhibitors and the use thereof” (Cytovia, Inc., priority 1997, dated 2005)

Columns and labels:
HeLa cells = test: Effect of Z-VD-fmk on TNF-α-induced cell death in HeLa cells (calcein AM, Example 25); format: cell-based; conditions: TNF-α 25 ng/mL + CHX 30 μg/mL, zero to 500 nM tested
Procedure: Tumor necrosis factor alpha (TNF-α) can trigger apoptosis in a number of cell types by initiating the caspase cascade and its apoptosis inducing activity can be inhibited by peptide-based caspase inhibitors. However, high concentrations of the inhibitors (50 μM or greater) is required to have good anti-apoptotic effect. HeLa cells, a cell line commonly employed in TNF-α cell death studies, was used here to determine the anti-apoptotic potency of Z-VD-fmk.
HeLa cells were seeded in 48-well multidishes at a density of 50,000 cells per well 24 hours before treatment. They were then pre-incubated with varying concentrations of Z-VD-fmk for 2 hours and challenged with TNF-α (25 ng/mL) and cycloheximide (CHX; 30 μg/mL). The cultures were incubated for an additional 24 hours and dead cells were removed by two washes with PBS. The density of surviving cells was then measured by incubating each culture for 45 minutes with calcein AM, a profluorescent dye which is taken up by living cells and converted to a fluorescent product. The resulting data were expressed as % control values (control values were cells incubated with cycloheximide but without TNF-α).
Z-VD-fmk provided good cytoprotection at concentrations approaching 100 nM.

[1] = system: mouse liver apoptosis model; test: Mouse liver apoptosis model (antiFas-induced lethality); format: in vivo; conditions: mice
Procedure: The in vivo activity of the cell death inhibitors of the invention can be tested using the “mouse liver apoptosis” model described by Rodriguez et al. (Rodriguez et al., J. Exp. Med., 184:2067-2072 (1996)). In this model, mice are treated intravenously (IV) with an antiFas antibody which induces massive apoptosis in the liver and other organs, leading to generalized organ failure and death. This model is useful for indirectly testing the systemic bioavailability of the cell death inhibitors of the invention, as well as their in vivo anti-apoptotic properties. The cell death inhibitors of the invention therefore can be used to reduce or prevent apoptosis of liver cells (Jones et al. Hepatology 27: 1632-42 (1998)) such as in sepsis (Jaeschke et al. J. Immunol. 160: 3480-3486 (1998)) and hereditary tyrosinemia type 1 (HT1) (Kubo et al. Prov. Natl. Acad Sci. USA, 95: 9552-9557 (1998). The cell death inhibitors of the invention also can be used to treat hepatitis (Suzuki, Proc. Soc. Exp. Biol. Med. 217: 450-454 (1998)).
Three to four week old female mice were used in the studies. Liver degeneration was induced by intravenous injection with 2-6 μg of a purified hamster anti-mouse Fas monoclonal antibody (clone Jo2, Pharmingen) against mouse Fas antigen diluted in 80 μl of phosphate buffered physiological saline (Rodriguez, et al., 1996). Mortality was used as the end point to assess liver degeneration. Cbz-Val-Asp-CH2F was formulated in Tris buffer for intravenous infusion and tested at a dose of 1-10 mg/kg given IV via the tail vein. Ten minutes later, animals were injected with Fas antibody. Mortality was counted at 30 mins, 1, 3 and 24 h. For each compound there were groups of control animals that receive Fas antibody only.

Caspase-6 = biological target: T1, Caspase-6 (Homo sapiens, UniProt P55212); test: Recombinant caspase assay with Ac-DEVD-AMC, caspase-6; format: biochemical; conditions: 10 μM Ac-DEVD-AMC, 30 minutes at 37° C.
T1 construct: purchased PharMington (PharMingen, a Becton division company, San Diego, Calif.)
T1 sequence (P55212 24-179 limits assumed): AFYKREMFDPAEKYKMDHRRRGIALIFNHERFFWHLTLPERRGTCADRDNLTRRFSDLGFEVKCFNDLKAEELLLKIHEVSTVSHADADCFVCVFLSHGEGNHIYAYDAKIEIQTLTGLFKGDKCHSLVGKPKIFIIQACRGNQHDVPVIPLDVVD
Procedure: The inhibitory activity of Cbz-Val-Asp-CH2F in recombinant caspase 3, 6, 7 and 8 obtained from PharMington (a Becton division company, San Diego, Calif.) were measured using Ac-DEVD-AMC (SEQ ID NO:1). The amount of each enzyme per assay was as following: 1 ng caspase3, 15 ng caspase6, 2 ng caspase7 and 60 ng caspase8. The enzyme reaction was conducted in 96-well plate using a caspase buffer (20 mM PIPES, 100 mM NaCl, 10 mM DTT, 1 mM EDTA, 0.1% CHAPS and 10% sucrose, pH 7.2) and the reaction was initiated by adding 10 μM Ac-DEVD-AMC (SEQ ID NO:1) (purchased from Quality Controlled Biochemicals, Inc. Hopkinton, Mass.). Twelve concentrations of Cbz-Val-Asp-CH2F ranged from 30 μM to […] were tested after incubation of the compound with recombinant caspases for 30 minutes at 37° C. […] The data was analyzed using GraphPrism software.

Caspase-3 = biological target: T2, Caspase-3 (Homo sapiens, UniProt P42574); test: Caspase-3 activity of the dipeptide inhibitors (Table III); format: biochemical
T2 sequence (P42574 29-175 limits assumed): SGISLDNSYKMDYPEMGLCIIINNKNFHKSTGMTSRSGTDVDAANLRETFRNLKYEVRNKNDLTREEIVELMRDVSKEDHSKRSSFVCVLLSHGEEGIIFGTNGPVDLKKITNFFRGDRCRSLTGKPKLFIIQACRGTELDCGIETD

CC(C)[C@H](NC(=O)OCc1ccccc1)C(=O)NC(CC(=O)O)C(=O)CF (stereo partly drawn) [Cbz-Val-Asp-CH2F, Z-Val-Asp-fmk]
concentration providing good cytoprotection against TNF-α-induced cell death (HeLa cells): ~100 nM
induction of the liver enzymes SPGT and SGOT ([1]; antiFas, separate studies): attenuation
protection from antiFas-induced lethality ([1]; single 1 mg/kg IV dose, up to 1 h after antibody administration): completely protected
survival ([1]; up to 24 h after antiFas): 28%
IC50 (Caspase-6): 18.4 nM
IC50 (Caspase-3): 40 nM
